Results: patent US11214803B2, “Modulators of YAP1 expression” (Ionis Pharmaceuticals, Inc., priority 2019, dated 2022)
pIC50: −log10 of the molar value. Strand notation (5' to 3'): a small letter for the sugar, then the base; units joined by * are phosphorothioate-linked, units joined directly phosphodiester-linked; [ ] holds rarer units or linkages, { } end groups; capitals alone tell only the bases. k = constrained ethyl (cEt); [5mC] = 5-methylcytosine; d = 2'-deoxy (DNA)

How the values were obtained:
[1] = tested on: Yap1 mRNA; test: Antisense inhibition of human Yap1 in A-431 cells by cEt gapmers, single dose (Example 2, RTS4814); type: cell-based; conditions: 3-10-3 cEt gapmers targeting SEQ ID NO.: 1, and 2
Outline: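 A-431 cells (5,000/well) took up 2,000 nM 3-10-3 cEt gapmer by free uptake for ~48 h. Yap1 mRNA was quantified by qRT-PCR with primer probe set RTS4814, normalized to RIBOGREEN total RNA, and reported as % of untreated control.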

[2] = tested on: Yap1 mRNA; test: Dose-dependent inhibition of human Yap1 in A-431 cells (Example 8, 10,000 cells per well, RTS4814); type: cell-based; conditions: free uptake, approximately 48 hours, RTS4814; for Yap1 mRNA, % UTC: A-431 cells, 10,000 cells per well; for pIC50: A-431 cells, linear regression on log/linear plot
Outline: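 Yap1 mRNA, normalized to RIBOGREEN total RNA and expressed as % untreated control, was read with RTS4814 about 48 h after free-uptake oligonucleotide treatment of A-431 cells at 10,000 cells/well. IC50 derived by linear regression of log/linear data.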

[3] = Yap1 mRNA as percent of untreated control, A-431 cells, Table 30
[4] = Yap1 mRNA as percent of untreated control, A-431 cells, Table 31
[5] = Table 32, Yap1 mRNA, percent of untreated control
[6] = Table 33, Yap1 mRNA, percent of untreated control

Substance | YAP1 (% UTC) [1, 3] | Yap1 mRNA, % UTC ([2]; 31.3 nM) | Yap1 mRNA, % UTC ([2]; 125.0 nM) | Yap1 mRNA, % UTC ([2]; 500.0 nM) | Yap1 mRNA, % UTC ([2]; 2000.00 nM) | pIC50 [2] | YAP1 (% UTC) [1, 4] | YAP1 (% UTC) [1, 5] | YAP1 (% UTC) [1, 6]
1074672 (antisense k[5mC]*k[5mC]*kA*dA*dG*dT*dA*dG*d[5mC]*dT*dT*dT*dG*kA*kT*k[5mC]) [compound 1074672] | 6 % UTC | 34 % UTC | 18 % UTC | 10 % UTC | 7 % UTC | > 7.70 | – | – | –
1075792 (kG*kA*kT*dT*dA*dG*dA*dA*dA*dG*dT*dG*d[5mC]*k[5mC]*kT*kT; antisense) [compound 1075792] | 6 % UTC | 79 % UTC | 41 % UTC | 15 % UTC | 10 % UTC | 7.00 | – | – | –
1076049 (kA*kG*kA*dT*dT*dA*dA*dA*dG*dG*d[5mC]*dT*dG*kG*kA*kA; antisense) [compound 1076049] | – | 61 % UTC | 16 % UTC | 13 % UTC | 6 % UTC | > 7.70 | 4 % UTC | – | –
1074609 (DNA k[5mC]*kT*kA*dG*dT*dT*dA*d[5mC]*dA*dT*d[5mC]*dA*dT*k[5mC]*kT*k[5mC]) [compound 1074609] | – | 65 % UTC | 29 % UTC | 15 % UTC | 11 % UTC | 7.00 | 8 % UTC | – | –
1074577 (DNA kT*kA*kT*dT*dT*d[5mC]*dT*dG*dT*d[5mC]*dA*dT*dG*k[5mC]*kA*k[5mC]) [compound 1074577] | – | 33 % UTC | 10 % UTC | 4 % UTC | 3 % UTC | > 7.70 | 3 % UTC | – | –
1076465 (kG*k[5mC]*kT*dT*dA*dA*dG*dG*dA*dA*dT*dA*dT*kA*k[5mC]*kA; antisense) [compound 1076465] | – | 72 % UTC | 32 % UTC | 14 % UTC | 7 % UTC | 7.00 | 5 % UTC | – | –
1074610 (DNA kT*k[5mC]*kT*dA*dG*dT*dT*dA*d[5mC]*dA*dT*d[5mC]*dA*kT*k[5mC]*kT) [compound 1074610] | – | 57 % UTC | 20 % UTC | 10 % UTC | 7 % UTC | > 7.70 | – | 5 % UTC | –
1076115 (k[5mC]*kA*kT*dT*dA*dG*dT*dA*dA*dG*d[5mC]*dT*dG*kA*kG*kG; antisense) [compound 1076115] | – | 47 % UTC | 17 % UTC | 9 % UTC | 6 % UTC | > 7.70 | – | – | 7 % UTC
1074736 (kT*k[5mC]*kA*dG*dT*dA*d[5mC]*dA*dG*dA*dG*dG*dG*k[5mC]*kA*kT; antisense) [compound 1074736] | 4 % UTC | 34 % UTC | 12 % UTC | 7 % UTC | 7 % UTC | > 7.70 | – | – | –
1076114 (kA*kT*kT*dA*dG*dT*dA*dA*dG*d[5mC]*dT*dG*dA*kG*kG*kA; antisense) [compound 1076114] | – | 34 % UTC | 11 % UTC | 6 % UTC | 5 % UTC | > 7.70 | – | 3 % UTC | –
1074417 (kT*k[5mC]*kT*dT*dT*dA*dG*dA*dG*d[5mC]*d[5mC]*dA*dA*k[5mC]*kT*kG; antisense) [compound 1074417] | – | 68 % UTC | 26 % UTC | 7 % UTC | 3 % UTC | 7.00 | 2 % UTC | – | –
1076530 (kA*kG*kT*dA*dT*dA*dA*dA*dG*d[5mC]*dA*dG*dG*kG*k[5mC]*kA; antisense) [compound 1076530] | – | 53 % UTC | 26 % UTC | 11 % UTC | 7 % UTC | > 7.70 | – | 5 % UTC | –
1074608 (DNA kG*kT*kT*dA*d[5mC]*dA*dT*d[5mC]*dA*dT*d[5mC]*dT*d[5mC]*kT*kT*k[5mC]) [compound 1074608] | 5 % UTC | 49 % UTC | 20 % UTC | 9 % UTC | 7 % UTC | > 7.70 | – | – | –
1074480 (kT*k[5mC]*kA*dT*dT*dT*dG*d[5mC]*d[5mC]*dT*dA*dG*dG*kT*kT*k[5mC]; antisense) [compound 1074480] | 3 % UTC | 33 % UTC | 9 % UTC | 5 % UTC | 3 % UTC | > 7.70 | – | – | –
1076369 (antisense kT*kA*kT*dT*d[5mC]*dG*dG*dT*dA*dT*dT*dT*dT*k[5mC]*kT*kA) [compound 1076369] | – | 60 % UTC | 20 % UTC | 6 % UTC | 3 % UTC | > 7.70 | 2 % UTC | – | –
1076370 (antisense kG*kA*kT*dT*dA*dT*dT*d[5mC]*dG*dG*dT*dA*dT*kT*kT*kT) [compound 1076370] | – | 46 % UTC | 12 % UTC | 4 % UTC | 2 % UTC | > 7.70 | – | 2 % UTC | –
1075824 (kG*kT*kA*dT*dT*dA*dG*dA*dG*dG*dT*dT*d[5mC]*k[5mC]*kA*kG; antisense) [compound 1075824] | 3 % UTC | 33 % UTC | 10 % UTC | 5 % UTC | 3 % UTC | > 7.70 | – | – | –
1075089 (k[5mC]*kA*kT*dT*dT*dA*dT*dA*dG*dT*d[5mC]*dA*dG*kG*kT*kT; antisense) [compound 1075089] | – | 45 % UTC | 9 % UTC | 3 % UTC | 3 % UTC | > 7.70 | 2 % UTC | – | –
1075249 (kA*kT*kT*dA*d[5mC]*dG*dA*dT*dT*dA*dG*dA*dT*k[5mC]*kA*kG; antisense) [compound 1075249] | – | 77 % UTC | 37 % UTC | 16 % UTC | 8 % UTC | 7.00 | 5 % UTC | – | –
1075088 (kA*kT*kT*dT*dA*dT*dA*dG*dT*d[5mC]*dA*dG*dG*kT*kT*k[5mC]; antisense) [compound 1075088] | 2 % UTC | 37 % UTC | 9 % UTC | 4 % UTC | 2 % UTC | > 7.70 | – | – | –
1074675 (antisense kA*kA*kA*dT*dT*dA*dT*dA*dG*dG*d[5mC]*dA*d[5mC]*kT*k[5mC]*k[5mC]) [compound 1074675] | – | 47 % UTC | 18 % UTC | 6 % UTC | 3 % UTC | > 7.70 | – | – | 6 % UTC
1075155 (kT*k[5mC]*kA*dT*dT*dA*dT*dA*dA*dT*dG*dG*dG*kA*kG*kG; antisense) [compound 1075155] | – | 51 % UTC | 15 % UTC | 6 % UTC | 4 % UTC | > 7.70 | – | – | 5 % UTC
1074450 (kA*k[5mC]*kT*dA*dA*dT*dG*dA*dT*dA*dG*d[5mC]*dA*k[5mC]*kT*kA; antisense) [compound 1074450] | – | 54 % UTC | 22 % UTC | 7 % UTC | 5 % UTC | > 7.70 | – | 5 % UTC | –
1074419 (kA*kT*kT*d[5mC]*dT*dT*dT*dA*dG*dA*dG*d[5mC]*d[5mC]*kA*kA*k[5mC]; antisense) [compound 1074419] | – | 48 % UTC | 15 % UTC | 5 % UTC | 3 % UTC | > 7.70 | – | – | 4 % UTC
1076467 (kG*kT*kA*dT*dT*dT*dA*dG*dA*dG*d[5mC]*dT*dT*kA*kA*kG; antisense) [compound 1076467] | – | 24 % UTC | 6 % UTC | 3 % UTC | 2 % UTC | > 7.70 | – | – | 5 % UTC
1074451 (kG*kA*k[5mC]*dT*dA*dA*dT*dG*dA*dT*dA*dG*d[5mC]*kA*k[5mC]*kT; antisense) [compound 1074451] | – | 63 % UTC | 26 % UTC | 8 % UTC | 4 % UTC | 7.40 | – | – | 6 % UTC
